Laboratory results published in PubChem BioAssay (NCI).
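How tested: cells in 96-well plates exposed to compound for 48 hours at five concentrations. GI50 is the concentration that inhibits growth by half. TGI is the concentration that stops growth completely.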

Assays:
Test in all cases: NCI anticancer screen, dose series, 48 h
[1] = tested on: SN12C renal
[2] = tested on: CCRF-CEM leukemia
[3] = tested on: HOP-62 NSCLC
[4] = tested on: HOP-92 NSCLC
[5] = tested on: RXF 393 renal
[6] = tested on: EKVX NSCLC
[7] = tested on: UO-31 renal
[8] = tested on: KM12 colon
[9] = tested on: RPMI-8226 leukemia
[10] = tested on: HCT-116 colon
[11] = tested on: NCI-H226 lung
[12] = tested on: SK-MEL-28 melanoma
[13] = tested on: ACHN renal
[14] = tested on: HS 578T breast
[15] = tested on: SNB-19 CNS
[16] = tested on: MCF7 breast
[17] = tested on: A498 renal
[18] = tested on: COLO 205 colon
[19] = tested on: SR leukemia
[20] = tested on: SF-268 CNS
[21] = tested on: PC-3 prostate
[22] = tested on: NCI/ADR-RES ovarian
[23] = tested on: UACC-62 melanoma
[24] = tested on: MALME-3M melanoma
[25] = tested on: A549 NSCLC
[26] = tested on: MDA-MB-435
[27] = tested on: SK-MEL-2 melanoma
[28] = tested on: BT-549 breast
[29] = tested on: OVCAR-4 ovarian
[30] = tested on: MDA-MB-231 breast
[31] = tested on: SF-295 CNS
[32] = tested on: SK-OV-3 ovarian
[33] = tested on: IGROV1 ovarian
[34] = tested on: LOX IMVI melanoma
[35] = tested on: HCT-15 colon
[36] = tested on: SNB-75 CNS
[37] = tested on: MOLT-4 leukemia
[38] = tested on: UACC-257 melanoma
[39] = tested on: OVCAR-5 ovarian
[40] = tested on: K-562 leukemia
[41] = tested on: OVCAR-8 ovarian
[42] = tested on: NCI-H23 lung
[43] = tested on: HL-60(TB) leukemia
[44] = tested on: M14 melanoma
[45] = tested on: SF-539 CNS
[46] = tested on: HT29 colon
[47] = tested on: TK-10 renal
[48] = tested on: T-47D breast
[49] = tested on: DU-145 prostate
[50] = tested on: U251 CNS
[51] = tested on: NCI-H460 lung
[52] = tested on: SW-620 colon
[53] = tested on: CAKI-1 renal
[54] = tested on: OVCAR-3 ovarian
[55] = tested on: HCC-2998 colon
[56] = tested on: 786-0 renal
[57] = tested on: NCI-H522 lung
[58] = tested on: SK-MEL-5 melanoma

CCCCC(=O)OCC1OC(n2cnc3c(=S)nc[nH]c32)C(OC(=O)CCCC)C1OC(=O)CCCC (centres undefined) was tested, and the GI50 [1] was 2.78 µM, the TGI [1] was over 100 µM and the GI50 [2] was 3.25 µM. It also gave a TGI [2] of over 100 µM, a GI50 [3] of 1.01 µM and a TGI [3] of over 100 µM. It also gave a GI50 [4] of 1 µM, a TGI [4] of over 84.5 µM and a GI50 [5] of over 71.4 µM. The TGI [5] was over 100 µM, the TGI [6] was over 100 µM and the GI50 [7] was 2.2 µM. The TGI [7] was over 100 µM, the GI50 [8] was 1.48 µM and the TGI [8] was over 100 µM. For the same compound, the GI50 [9] was 5.81 µM, the TGI [9] was over 100 µM and the GI50 [10] was 2.15 µM. For the same compound, the TGI [10] was over 100 µM, the TGI [11] was over 100 µM and the GI50 [12] was 57.4 µM. For the same compound, the TGI [12] was over 100 µM, the GI50 [13] was 2.59 µM and the TGI [13] was over 100 µM. For the same compound, the GI50 [14] was over 35.4 µM, the TGI [14] was over 100 µM and the GI50 [15] was 17.9 µM. The TGI [15] was over 100 µM, the GI50 [16] was 1.13 µM and the TGI [16] was over 100 µM. The GI50 [17] was 9.54 µM, the TGI [17] was over 96.1 µM and the GI50 [18] was 1.37 µM. The TGI [18] was 5.18 µM, the GI50 [19] was 7.5 µM and the TGI [19] was over 100 µM. For the same compound, the GI50 [20] was 3.96 µM, the TGI [20] was over 100 µM and the GI50 [21] was 2.21 µM. It also gave a TGI [21] of over 100 µM, a GI50 [22] of 3.51 µM and a TGI [22] of over 100 µM. For the same compound, the GI50 [23] was 0.899 µM, the TGI [23] was over 100 µM and the GI50 [24] was over 22.1 µM. It also gave a TGI [24] of over 100 µM, a GI50 [25] of over 25.3 µM and a TGI [25] of over 100 µM. The GI50 [26] was 2.21 µM, the TGI [26] was over 100 µM and the GI50 [27] was 1.61 µM. The TGI [27] was over 78.7 µM, the GI50 [28] was 1.11 µM and the TGI [28] was over 28.7 µM. The GI50 [29] was 0.441 µM, the TGI [29] was over 100 µM and the GI50 [30] was 5.22 µM. It also gave a TGI [30] of over 100 µM, a GI50 [31] of 1.54 µM and a TGI [31] of over 26.4 µM. It also gave a GI50 [32] of 0.636 µM, a TGI [32] of over 80.3 µM and a GI50 [33] of 3.86 µM. It also gave a TGI [33] of over 39.4 µM, a GI50 [34] of 1.11 µM and a TGI [34] of over 100 µM. For the same compound, the GI50 [35] was 1.56 µM, the TGI [35] was over 100 µM and the GI50 [36] was 0.213 µM. The GI50 [37] was 5.74 µM, the TGI [37] was over 100 µM and the GI50 [38] was 11.9 µM. For the same compound, the TGI [38] was over 100 µM, the GI50 [39] was 3.65 µM and the TGI [39] was over 100 µM. For the same compound, the GI50 [40] was 2.03 µM, the TGI [40] was over 100 µM and the GI50 [41] was 3.05 µM. For the same compound, the TGI [41] was over 100 µM, the GI50 [42] was 1.36 µM and the TGI [42] was over 100 µM. For the same compound, the GI50 [43] was 3.55 µM, the TGI [43] was over 100 µM and the GI50 [44] was 0.779 µM. The TGI [44] was 10.7 µM, the GI50 [45] was 2.07 µM and the TGI [45] was over 62 µM. For the same compound, the GI50 [46] was 3.64 µM, the TGI [46] was over 100 µM and the GI50 [47] was 0.608 µM. It also gave a TGI [47] of over 100 µM, a GI50 [48] of 1.17 µM and a TGI [48] of over 59 µM. For the same compound, the GI50 [49] was 0.636 µM, the TGI [49] was over 100 µM and the GI50 [50] was 13.4 µM. It also gave a TGI [50] of over 100 µM, a GI50 [51] of 4.38 µM and a TGI [51] of over 100 µM. For the same compound, the GI50 [52] was 1.51 µM, the TGI [52] was over 100 µM and the GI50 [53] was 2.26 µM. It also gave a TGI [53] of over 100 µM, a GI50 [54] of 1.01 µM and a TGI [54] of over 36.3 µM. For the same compound, the GI50 [55] was 0.565 µM, the TGI [55] was over 36.7 µM and the GI50 [56] was 2.24 µM. For the same compound, the TGI [56] was over 100 µM, the GI50 [57] was 0.498 µM and the TGI [57] was 60.2 µM. It also gave a GI50 [58] of 1.76 µM and a TGI [58] of over 46.5 µM.

CC1=C(C(=O)Nc2ccc3[nH]ncc3c2)C(c2ccc3ccccc3c2)CC(=O)N1 (centres undefined) gave a GI50 [1] of over 25 µM, a TGI [1] of over 25 µM and a GI50 [2] of over 25 µM. It also gave a TGI [2] of over 25 µM, a GI50 [3] of 6.46 µM and a TGI [3] of over 25 µM. The GI50 [4] was 0.0408 µM, the TGI [4] was 10.9 µM and the GI50 [5] was 4.11 µM. The TGI [5] was over 23.8 µM, the GI50 [6] was over 17.9 µM and the TGI [6] was over 25 µM. The GI50 [7] was 2.4 µM, the TGI [7] was over 25 µM and the GI50 [8] was 17.8 µM. The TGI [8] was over 25 µM, the GI50 [9] was over 25 µM and the TGI [9] was over 25 µM. For the same compound, the GI50 [10] was 14.1 µM, the TGI [10] was over 25 µM and the GI50 [11] was 1.04 µM. The TGI [11] was over 18.2 µM, the GI50 [12] was over 22.2 µM and the TGI [12] was over 25 µM. The GI50 [13] was over 25 µM, the TGI [13] was over 25 µM and the GI50 [14] was 0.873 µM. For the same compound, the TGI [14] was over 25 µM, the GI50 [15] was over 25 µM and the TGI [15] was over 25 µM. The GI50 [16] was 24.4 µM, the TGI [16] was over 25 µM and the GI50 [17] was 4.22 µM. For the same compound, the TGI [17] was 22 µM, the GI50 [18] was 9.96 µM and the TGI [18] was over 21.2 µM. It also gave a GI50 [19] of over 25 µM, a TGI [19] of over 25 µM and a GI50 [20] of 11.5 µM. The TGI [20] was over 25 µM, the GI50 [21] was over 25 µM and the TGI [21] was over 25 µM. The GI50 [22] was over 25 µM, the TGI [22] was over 25 µM and the GI50 [23] was 14.5 µM. For the same compound, the TGI [23] was over 25 µM, the GI50 [24] was 11 µM and the TGI [24] was over 25 µM. It also gave a GI50 [25] of over 25 µM, a TGI [25] of over 25 µM and a GI50 [26] of over 25 µM. It also gave a TGI [26] of over 25 µM, a GI50 [27] of over 25 µM and a TGI [27] of over 25 µM. For the same compound, the GI50 [28] was 4.11 µM, the TGI [28] was over 25 µM and the GI50 [29] was 13.4 µM. The TGI [29] was over 25 µM, the GI50 [30] was 11.7 µM and the TGI [30] was over 25 µM. The GI50 [31] was 16.5 µM, the TGI [31] was over 25 µM and the GI50 [32] was over 25 µM. For the same compound, the TGI [32] was over 25 µM, the GI50 [33] was 8.08 µM and the TGI [33] was over 25 µM. The GI50 [34] was 13.2 µM, the TGI [34] was over 25 µM and the GI50 [35] was over 25 µM. The TGI [35] was over 25 µM, the GI50 [36] was 1.54 µM and the TGI [36] was over 20.1 µM. For the same compound, the GI50 [37] was over 25 µM, the TGI [37] was over 25 µM and the GI50 [38] was over 25 µM. The TGI [38] was over 25 µM, the GI50 [39] was 20.5 µM and the TGI [39] was over 25 µM. For the same compound, the GI50 [40] was over 25 µM, the TGI [40] was over 25 µM and the GI50 [41] was over 25 µM. For the same compound, the TGI [41] was over 25 µM, the GI50 [42] was 19 µM and the TGI [42] was over 25 µM. For the same compound, the GI50 [43] was over 25 µM, the TGI [43] was over 25 µM and the GI50 [44] was over 25 µM. For the same compound, the TGI [44] was over 25 µM, the GI50 [45] was 9.18 µM and the TGI [45] was over 25 µM. For the same compound, the GI50 [46] was 20 µM, the TGI [46] was over 25 µM and the GI50 [47] was 8.73 µM. It also gave a TGI [47] of over 25 µM, a GI50 [48] of over 25 µM and a TGI [48] of over 25 µM. It also gave a GI50 [49] of over 25 µM, a TGI [49] of over 25 µM and a GI50 [50] of over 25 µM. The TGI [50] was over 25 µM, the GI50 [51] was over 25 µM and the TGI [51] was over 25 µM. The GI50 [52] was 9.97 µM, the TGI [52] was over 25 µM and the GI50 [53] was over 16.9 µM. For the same compound, the TGI [53] was over 25 µM, the GI50 [54] was over 25 µM and the TGI [54] was over 25 µM. It also gave a GI50 [55] of over 25 µM, a TGI [55] of over 25 µM and a GI50 [56] of 15.1 µM. For the same compound, the TGI [56] was over 25 µM, the GI50 [57] was 13.8 µM and the TGI [57] was over 25 µM. The GI50 [58] was over 19.3 µM and the TGI [58] was over 25 µM.
